Source: US20090060851A1, “USE OF IDEBENONE FOR THE PREPARATION OF A TOPICALLY-APPLIED DEPIGMENTATION COMPOSITION AND CORRESPONDING COMPOSITION” (priority 2005, published 2009)

Tested on: SK-MEL-28
Experiment: Dopaquinone content determination (OD475) in SK-MEL cells
Format: cell-based, human
Experimental: In vitro determinations were performed following the method devised by Dooley et al. (Skin Pharmacol. 1994; 7:188-200) in order to evaluate the capacity of idebenone to inhibit melanogenesis, according to the process described below:
Cells: The study was carried out using a cell line derived from human melanoma, provided by ABAC (Asociación Banco Argentino de Células—Cell Bank of Argentina), with melanin synthesis capability (SK-MEL-28, ATCC origin). The cells were grown in plastic culture bottles or in 24-well plastic dishes in a modified Eagle medium (DMEM) supplemented with 10% fetal bovine serum (FBS) and were maintained at 37° C. in a 5% CO2 atmosphere.
Study of in vitro compounds: SK-MEL cells detached with trypsin were seeded on plastic 24-well dishes (density of 1×10^5 cells per well) and incubated for 24 hours in modified Eagle medium (DMEM) supplemented with 10% fetal bovine serum (FBS) prior to treating with the compound to be evaluated. After 24 hours have lapsed, the medium was replaced with 990 μl of fresh medium. 10 μl of sterile vehicle (50% propylene glycol, 30% ethanol and 20% distilled water) containing different concentrations of the compounds to be evaluated were added to this fresh medium.
Decimal dilutions of each compound in the sterile vehicle were prepared in order to obtain final concentrations of the compound to be studied ranging between 1.000 and 0.01 μg/ml. […]
[…] […] All the concentrations of the compounds were studied in triplicate, comparing the mean of the 3 wells treated with the compounds with those treated with the vehicle alone.
Melanin content determination: The SK-MEL cell melanin content was determined after stirring the culture medium and washing the cells with PBS. The cells were then lysated by means of adding 1 ml of 1N NaOH to each well and repeated manual pipetting. The raw cell extract was analyzed using a spectrophotometer at 400 and 475 nm to determine the melanin and dopaquinone content, respectively. The results were expressed as a percentage of the cell cultures treated with the vehicle.

[1] = Example 9 (similar to Example 6), dilution −2
[2] = Example 9 (similar to Example 6), dilution −3
[3] = Example 9 (similar to Example 6), dilution −4
[4] = Example 9 (similar to Example 6), dilution −5
[5] = Example 9 (similar to Example 6), dilution −6
[6] = Example 9 (similar to Example 6), dilution −7
[7] = Example 9 (similar to Example 6), dilution −8
[8] = dilution −1, treated daily 3 days, assayed day 5
[9] = dilution −2, treated 1 day, evaluated third day
[10] = dilution −2, treated daily 3 days, assayed day 5
[11] = dilution −3, treated 1 day, evaluated third day
[12] = dilution −3, treated daily 3 days, assayed day 5
[13] = dilution −4, treated 1 day, evaluated third day
[14] = dilution −4, treated 2 days, evaluated fourth day
[15] = dilution −4, treated daily 3 days, assayed day 5
[16] = dilution −4, treated for 5 days (heading: 3 days), evaluated fifth day
[17] = dilution −5, treated 1 day, evaluated third day
[18] = dilution −5, treated 2 days, evaluated fourth day
[19] = dilution −5, treated daily 3 days, assayed day 5
[20] = dilution −5, treated for 5 days (heading: 3 days), evaluated fifth day
[21] = dilution −6, treated 1 day, evaluated third day
[22] = dilution −6, treated 2 days, evaluated fourth day
[23] = dilution −6, treated for 5 days (heading: 3 days), evaluated fifth day

Question: `COC1=C(OC)C(=O)C(CCCCCCCCCCO)=C(C)C1=O` [idebenone, 6-(10-hydroxydecyl)-2,3-dimethoxy-5-methyl-1,4-benzoquinone] was tested. Which “OD475 (dopaquinone)” value [1] did it give?
Answer: Its value is 0.0024.

Question: And the “OD475 Percentage (dopaquinone)” value [1]?
Answer: The value was 14.45%.

Question: And the “OD475 (dopaquinone)” value [2]?
Answer: Its value is 0.0038.

Question: What about the “OD475 Percentage (dopaquinone)” value [2] of the same compound?
Answer: The value was 22.89%.

Question: What about the “OD475 (dopaquinone)” value [3] of the same compound?
Answer: The value was 0.0133.

Question: And the “OD475 Percentage (dopaquinone)” value [3]?
Answer: Its value is 80.12%.

Question: What about the “OD475 (dopaquinone)” value [4] of the same compound?
Answer: The value was 0.0139.

Question: What about the “OD475 Percentage (dopaquinone)” value [4] of the same compound?
Answer: Its value is 83.73%.

Question: What about the “OD475 (dopaquinone)” value [5] of the same compound?
Answer: The value was 0.0116.

Question: And the “OD475 Percentage (dopaquinone)” value [5]?
Answer: The value was 69.87%.

Question: And the “OD475 (dopaquinone)” value [6]?
Answer: The value was 0.0139.

Question: What about the “OD475 Percentage (dopaquinone)” value [6] of the same compound?
Answer: The value was 83.73%.

Question: What about the “OD475 (dopaquinone)” value [7] of the same compound?
Answer: The value was 0.0133.

Question: What about the “OD475 Percentage (dopaquinone)” value [7] of the same compound?
Answer: The value was 80.12%.

Question: And the “OD475 (dopaquinone)” value [8]?
Answer: The value was 0.0011.

Question: What about the “OD475 expressed as percentage of control (dopaquinone)” value (“OD475 expressed as percentage” below) [8] of the same compound?
Answer: Its value is 9%.

Question: What about the “OD475 (dopaquinone)” value [9] of the same compound?
Answer: Its value is 0.0030.

Question: And the “OD475 Percentage (dopaquinone)” value [9]?
Answer: Its value is 18.75%.

Question: What about the “OD475 (dopaquinone)” value [10] of the same compound?
Answer: The value was 0.0016.

Question: And the “OD475 expressed as percentage” value [10]?
Answer: Its value is 14%.

Question: And the “OD475 (dopaquinone)” value [11]?
Answer: Its value is 0.0050.

Question: And the “OD475 Percentage (dopaquinone)” value [11]?
Answer: The value was 31.25%.

Question: What about the “OD475 (dopaquinone)” value [12] of the same compound?
Answer: Its value is 0.0043.

Question: And the “OD475 expressed as percentage” value [12]?
Answer: The value was 37%.

Question: What about the “OD475 (dopaquinone)” value [13] of the same compound?
Answer: Its value is 0.0123.

Question: What about the “OD475 Percentage (dopaquinone)” value [13] of the same compound?
Answer: Its value is 76.87%.

Question: What about the “OD475 (dopaquinone)” value [14] of the same compound?
Answer: The value was 0.0400.

Question: And the “OD475 Percentage (dopaquinone)” value [14]?
Answer: The value was 103.62%.

Question: What about the “OD475 (dopaquinone)” value [15] of the same compound?
Answer: Its value is 0.0053.

Question: And the “OD475 expressed as percentage” value [15]?
Answer: Its value is 46%.

Question: What about the “OD475 (dopaquinone)” value [16] of the same compound?
Answer: The value was 0.0513.

Question: What about the “OD475 Percentage (dopaquinone)” value [16] of the same compound?
Answer: Its value is 80.66%.

Question: And the “OD475 (dopaquinone)” value [17]?
Answer: Its value is 0.0196.

Question: What about the “OD475 Percentage (dopaquinone)” value [17] of the same compound?
Answer: Its value is 122.5%.

Question: And the “OD475 (dopaquinone)” value [18]?
Answer: The value was 0.0406.

Question: And the “OD475 Percentage (dopaquinone)” value [18]?
Answer: Its value is 105.18%.

Question: And the “OD475 (dopaquinone)” value [19]?
Answer: Its value is 0.0040.

Question: And the “OD475 expressed as percentage” value [19]?
Answer: Its value is 35%.

Question: And the “OD475 (dopaquinone)” value [20]?
Answer: The value was 0.0612.

Question: What about the “OD475 Percentage (dopaquinone)” value [20] of the same compound?
Answer: Its value is 96.22%.

Question: What about the “OD475 (dopaquinone)” value [21] of the same compound?
Answer: Its value is 0.0200.

Question: And the “OD475 Percentage (dopaquinone)” value [21]?
Answer: The value was 125.0%.

Question: And the “OD475 (dopaquinone)” value [22]?
Answer: The value was 0.0273.

Question: What about the “OD475 Percentage (dopaquinone)” value [22] of the same compound?
Answer: The value was 70.72%.

Question: And the “OD475 (dopaquinone)” value [23]?
Answer: Its value is 0.0643.

Question: What about the “OD475 Percentage (dopaquinone)” value [23] of the same compound?
Answer: Its value is 101.10%.
